Values quoted from earlier work in patent US12083128B2, “Use of medications with neuroprotective properties to prevent or reduce the risk of ischemia-reperfusion injury in a subject” (priority 2015, dated 2024).
Read-outs that look alike come from different tables or passages of the source.

Columns and labels:
retinal gangion cells [1] = conditions: in vitro; cited from earlier work
retinal gangion cells [2] = conditions: in vivo, animals; cited from earlier work
[3] = system: endothelin 1 induced ischemic retinal injury; conditions: daily topical administration, animals; cited from earlier work
optic nerve blood flow = conditions: animal models; cited from earlier work
[4] = intravitreal injections for AMD, 49 eyes followed for 12 months; cited from earlier work

| Molecule | protection of retinal ganglion cells from apoptosis (retinal gangion cells [1]) | protection of retinal ganglion cells from apoptosis (retinal gangion cells [2]) | RNFL thickness in treated eyes [3] | protection against endothelin 1 induced ischemic retinal injury [3] | optic nerve blood flow (optic nerve blood flow) | RNFL thinning [4] |
| --- | --- | --- | --- | --- | --- | --- |
| CC(C)OC(=O)CCC/C=C\C[C@@H]1[C@@H](/C=C/C(F)(F)COc2ccccc2)[C@H](O)C[C@@H]1O [tafluprost] | protects retinal gangion cells from apoptosis | protects retinal gangion cells from apoptosis | thicker in treated eyes | protective | improved optic nerve blood flow | – |
| Ranibizumab | – | – | – | – | – | caused significant RNFL thinning |
